Laboratory results as given in US12157730B2, “Heteroaryl derivative, method for producing same, and pharmaceutical composition comprising same as effective component” (VORONOI INC., priority 2019, dated 2024).

Molecular target: T1, Ba/F3 cell EGFR Exon20 ins NPH (Homo sapiens, UniProt P00533, INS773NPH)
T1 construct: expressed in transfected cells; host or cells: Ba/F3
Assay: Ba/F3 cell proliferation suppression, EGFR Exon20 ins NPH
Assay type: cell-based
Conditions: GI50 class; Ba/F3 cell line with NPH inserted at Exon20 of EGFR; 72 hours
How it was run: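 Seed 3000–5000 cells/well; after 24 h add compound (12 conc., 0.3 nM–50 um final); incubate 72 h; add CellTiter-Glo, 10 min room temperature; read luminescence; GI50 from % growth vs control, triplicate.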

| SMILES | Ba/F3 (NPH) Activity |
| --- | --- |
| C=CC(=O)Nc1cc(Nc2cc(N3OCC[C@@H]3c3ccc(C)nc3)ncn2)c(OC)cc1N1CCN(C2COC2)CC1 [Example 218, N-(4-methoxy-5-((6-((R)-3-(6-methylpyridine-3-yl)isoxazolidine-2-yl)pyrimidine-4-yl)amino)-2-(4-(oxetane-3-yl)piperazine-1-yl)phenyl)acrylamide] | B (50 nM ≤ GI50 < 500 nM) |
| C=CC(=O)Nc1cc(Nc2cc(N3OCC[C@@H]3c3cc(F)cc(F)c3)ncn2)c(OC)cc1N1CCC(N2C[C@H](C)N(C3CC3)C[C@@H]2C)CC1 [Example 113, N-(2-(4-((2S,5S)-4-cyclopropyl-2,5-dimethylpiperazine-1-yl)piperidine-1-yl)-5-((6-((R)-3-(3,5-difluorophenyl)isoxazolidine-2-yl)pyrimidine-4-yl)amino)-4-methoxyphenyl) acrylamide] | A (GI50 < 50 nM) |
| C=CC(=O)Nc1cc(Nc2cc(N3OCC[C@@H]3c3ccc(Cl)cc3F)ncn2)c(OC)cc1N1CCC(N(C(=O)C=C)C2CCN(C(C)C)CC2)CC1 [compound 402, N-(1-(2-acrylamido-4-((6-((R)-3-(4-chloro-2-fluorophenyl)isoxazolidine-2-yl)pyrimidine-4-yl)amino)-5-methoxyphenyl)piperidine-4-yl)-N-(1-isopropylpiperidine-4-yl)acrylamide] | A (GI50 < 50 nM) |
| C=CC(=O)Nc1cc(Nc2cc(N3OCC[C@@H]3c3ccc(Cl)c(Cl)c3)ncn2)c(OC)cc1N1C[C@@H]2C[C@H]1CN2CC [compound 678, N-(5-((6-((R)-3-(3,4-dichlorophenyl)isoxazolidine-2-yl)pyrimidine-4-yl)amino)-2-((1S,4S)-5-ethyl-2,5-diazabicyclo[2.2.1]heptane-2-yl)-4-methoxyphenyl) acrylamide] | A (GI50 < 50 nM) |
| C=CC(=O)Nc1cc(Nc2cc(N3OCC[C@@H]3c3ccc(F)c(Cl)c3F)ncn2)c(OC)cc1N1CCO[C@H](C)C1 [compound 666, N-(5-((6-((R)-3-(3-chloro-2,4-difluorophenyl)isoxazolidine-2-yl)pyrimidine-4-yl)amino)-4-methoxy-2-((R)-2-methylmorpholino)phenyl)acrylamide] | B (50 nM ≤ GI50 < 500 nM) |
| C=CC(=O)Nc1cc(Nc2cc(N3OCC[C@@H]3c3cc(F)cc(Cl)c3)ncn2)c(OC)cc1N1CCC(N2CCN(C3CC3)C[C@H]2C)CC1 [Example 159, N-(5-((6-((R)-3-(3-chloro-5-fluorophenyl)isoxazolidine-2-yl)pyrimidine-4-yl)amino)-2-(4-((R)-4-cyclopropyl-2-methylpiperazine-1-yl)piperidine-1-yl)-4-methoxyphenyl) acrylamide] | A (GI50 < 50 nM) |
| C=CC(=O)Nc1cc(Nc2cc(N3OCC[C@@H]3c3cc(F)cc(F)c3)ncn2)c(OC)cc1N1CCC(N2CCN(CCN(C)C)CC2)CC1 [compound 753, N-(5-((6-((R)-3-(3,5-difluorophenyl)isoxazolidine-2-yl)pyrimidine-4-yl)amino)-2-(4-(4-(2-(dimethylamino)ethyl)piperazine-1-yl)piperidine-1-yl)-4-methoxyphenyl) acrylamide] | A (GI50 < 50 nM) |
| C=CC(=O)Nc1cc(Nc2cc(N3OCC[C@@H]3c3ccc(Cl)c(Cl)c3)ncn2)c(OC)cc1N1CCN(C2CCN(C)CC2)CC1 [compound 685, N-(5-((6-((R)-3-(3,4-dichlorophenyl)isoxazolidine-2-yl)pyrimidine-4-yl)amino)-4-methoxy-2-(4-(1-methylpiperidine-4-yl)piperazine-1-yl)phenyl) acrylamide] | A (GI50 < 50 nM) |
| C=CC(=O)Nc1cc(Nc2cc(N3OCC[C@@H]3c3ccc(F)cc3F)ncn2)c(OC)cc1N1CCC(N2CCN(C(C)C)CC2)CC1 [compound 428, N-(5-((6-((R)-3-(2,4-difluorophenyl)isoxazolidine-2-yl)pyrimidine-4-yl)amino)-2-(4-(4-isopropylpiperazine-1-yl)piperidine-1-yl)-4-methoxyphenyl) acrylamide] | A (GI50 < 50 nM) |
| C=CC(=O)Nc1cc(Nc2cc(N3OCC[C@@H]3c3ccc(Cl)c(Cl)c3F)ncn2)c(OC)cc1N1CCC(N2CCN(C3CC3)CC2)CC1 [Example 60, N-(2-(4-(4-cyclopropylpiperazine-1-yl)piperidine-1-yl)-5-((6-((R)-3-(3,4-dichloro-2-fluorophenyl)isoxazolidine-2-yl)pyrimidine-4-yl)amino)-4-methoxyphenyl) acrylamide;] | A (GI50 < 50 nM) |
| C=CC(=O)Nc1cc(Nc2cc(N3OCC[C@@H]3c3ccc(F)c(F)c3F)ncn2)c(OC)cc1N1CCC(N2CCOCC2)CC1 [compound 621, N-(4-methoxy-2-(4-morpholinopiperidine-1-yl)-5-((6-((R)-3-(2,3,4-trifluorophenyl)isoxazolidine-2-yl)pyrimidine-4-yl)amino)phenyl)acrylamide] | A (GI50 < 50 nM) |
| C=CC(=O)Nc1cc(Nc2cc(N3OCC[C@@H]3c3ccc4ccccc4c3)ncn2)c(OC)cc1N1CCO[C@H](C)C1 [compound 663, N-(4-methoxy-2-((R)-2-methylmorpholino)-5-((6-((R)-3-(naphthalene-2-yl)isoxazolidine-2-yl)pyrimidine-4-yl)amino)phenyl)acrylamide] | B (50 nM ≤ GI50 < 500 nM) |
| C=CC(=O)Nc1cc(Nc2cc(N3OCC[C@@H]3c3ccc(Cl)c(Cl)c3)ncn2)c(OC)cc1N1CCC(N2C[C@H]3C[C@@H]2CO3)CC1 [compound 690] | A (GI50 < 50 nM) |
| C=CC(=O)Nc1cc(Nc2cc(N3OCC[C@@H]3c3cccc(F)c3Cl)ncn2)c(OC)cc1N1CCN(C)CC1 [compound 552, N-(5-((6-((R)-3-(2-chloro-3-fluorophenyl)isoxazolidine-2-yl)pyrimidine-4-yl)amino)-4-methoxy-2-(4-methylpiperazine-1-yl)phenyl)acrylamide] | A (GI50 < 50 nM) |
| C=CC(=O)Nc1cc(Nc2cc(N3OCC[C@@H]3c3cc(F)cc(F)c3)ncn2)c(OC)cc1N1CCC(N2CCN(C3CC3)C[C@H]2C)CC1 [Example 112, N-(2-(4-((R)-4-cyclopropyl-2-methylpiperazine-1-yl)piperidine-1-yl)-5-((6-((R)-3-(3,5-difluorophenyl)isoxazolidine-2-yl)pyrimidine-4-yl)amino)-4-methoxyphenyl) acrylamide] | A (GI50 < 50 nM) |
| C=CC(=O)Nc1cc(Nc2cc(N3OCC[C@@H]3c3cc(F)cc(Cl)c3)ncn2)c(OC)cc1N1CCC(N2CCN(C3CCC3)CC2)CC1 [Example 189, N-(5-((6-((R)-3-(3-chloro-5-fluorophenyl)isoxazolidine-2-yl)pyrimidine-4-yl)amino)-2-(4-(4-cyclobutylpiperazine-1-yl)piperidine-1-yl)-4-methoxyphenyl) acrylamide] | A (GI50 < 50 nM) |

Continued, values first:

| Ba/F3 (NPH) Activity | SMILES |
| --- | --- |
| A (GI50 < 50 nM) | C=CC(=O)Nc1cc(Nc2cc(N3OCC[C@@H]3c3cc(F)cc(F)c3)ncn2)c(OC)cc1N1C[C@H]2CCN(C)[C@H]2C1 [compound 890, N-(5-((6-((R)-3-(3,5-difluorophenyl)isoxazolidine-2-yl)pyrimidine-4-yl)amino)-4-methoxy-2-((3aR,6aR)-1-methylhexahydropyrrolo [3,4-b]pyrrole-5(1H)-yl)phenyl) acrylamide] |
| A (GI50 < 50 nM) | C=CC(=O)Nc1cc(Nc2cc(N3OCC[C@@H]3c3cccc(F)c3F)ncn2)c(OC)cc1N1CCN(C)C[C@H]1C [compound 885, N-(5-((6-((R)-3-(2,3-difluorophenyl)isoxazolidine-2-yl)pyrimidine-4-yl)amino)-2-((R)-2,4-dimethylpiperazine-1-yl)-4-methoxyphenyl) acrylamide] |
| A (GI50 < 50 nM) | C=CC(=O)Nc1cc(Nc2cc(N3OCC[C@@H]3c3ccc(F)c(Cl)c3)ncn2)c(OC)cc1N1CCOCC1 [compound 824, N-(5-((6-((R)-3-(3-chloro-4-fluorophenyl)isoxazolidine-2-yl)pyrimidine-4-yl)amino)-4-methoxy-2-morpholinophenyl) acrylamide] |
| A (GI50 < 50 nM) | C=CC(=O)Nc1cc(Nc2cc(N3OCC[C@@H]3Cc3cccc(F)c3)ncn2)c(OC)cc1N1CCC(N2CCN(C3CC3)CC2)CC1 [compound 997, N-(2-(4-(4-cyclopropylpiperazine-1-yl)piperidine-1-yl)-5-((6-((S)-3-(3-fluorobenzyl)isoxazolidine-2-yl)pyrimidine-4-yl)amino)-4-methoxyphenyl) acrylamide] |
| B (50 nM ≤ GI50 < 500 nM) | C=CC(=O)Nc1cc(Nc2cc(N3OCC[C@@H]3Cc3ccc(C(F)(F)F)cc3)ncn2)c(OC)cc1N1CCC(N2CCN(C3CC3)CC2)CC1 [compound 1050, N-(2-(4-(4-cyclopropylpiperazine-1-yl)piperidine-1-yl)-4-methoxy-5-((6-((S)-3-(4-(trifluoromethyl)benzyl)isoxazolidine-2-yl)pyrimidine-4-yl)amino)phenyl) acrylamide] |
| A (GI50 < 50 nM) | C=CC(=O)Nc1cc(Nc2cc(N3OCC[C@@H]3c3cccc(F)c3F)ncn2)c(OC)cc1N1CCN(C)CC1 [compound 925, N-(5-((6-((R)-3-(2,3-difluorophenyl)isoxazolidine-2-yl)pyrimidine-4-yl)amino)-4-methoxy-2-(4-methylpiperazine-1-yl)phenyl)acrylamide] |
| A (GI50 < 50 nM) | C=CC(=O)Nc1cc(Nc2cc(N3OCC[C@@H]3c3cccc(Cl)c3F)ncn2)c(OC)cc1N1CC[C@@H](N(C)C)C1 [compound 834, N-(5-((6-((R)-3-(3-chloro-2-fluorophenyl)isoxazolidine-2-yl)pyrimidine-4-yl)amino)-2-((R)-3-(dimethylamino)pyrolidine-1-yl)-4-methoxyphenyl) acrylamide] |
| A (GI50 < 50 nM) | C=CC(=O)Nc1cc(Nc2cc(N3OCC[C@@H]3c3cccc(Cl)c3F)ncn2)c(OC)cc1N1CCC(N(C)C)CC1 [compound 790, N-(5-((6-((R)-3-(3-chloro-2-fluorophenyl)isoxazolidine-2-yl)pyrimidine-4-yl)amino)-2-(4-(dimethylamino)piperidine-1-yl)-4-methoxyphenyl) acrylamide] |
